Key:
[1] = DRUGMATRIX: ATPase, Na+/K+ enzyme inhibition (substrate: ATP); assay type: tissue-based, Sus scrofa, Heart; details: Not Active = under 50% inhibition at 10 µM
[2] = DRUGMATRIX: Glutamate, NMDA, Agonism radioligand binding (ligand: [3H] CGP-39653); assay type: cell membranes, Rattus norvegicus, Wistar, Cerebral cortex, Membrane; details: Not Active = under 50% inhibition at 10 µM
[3] = biological target: T1, Nitric oxide synthase, inducible (Mus musculus, UniProt P29477); parameters: species or system Escherichia coli;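 note: inhibition of iNOS enzyme activity measured with L-arginine as substrate; in other assays of this panel Not Active means under 50% inhibition at 10 µM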
T1 sequence (P29477 whole entry): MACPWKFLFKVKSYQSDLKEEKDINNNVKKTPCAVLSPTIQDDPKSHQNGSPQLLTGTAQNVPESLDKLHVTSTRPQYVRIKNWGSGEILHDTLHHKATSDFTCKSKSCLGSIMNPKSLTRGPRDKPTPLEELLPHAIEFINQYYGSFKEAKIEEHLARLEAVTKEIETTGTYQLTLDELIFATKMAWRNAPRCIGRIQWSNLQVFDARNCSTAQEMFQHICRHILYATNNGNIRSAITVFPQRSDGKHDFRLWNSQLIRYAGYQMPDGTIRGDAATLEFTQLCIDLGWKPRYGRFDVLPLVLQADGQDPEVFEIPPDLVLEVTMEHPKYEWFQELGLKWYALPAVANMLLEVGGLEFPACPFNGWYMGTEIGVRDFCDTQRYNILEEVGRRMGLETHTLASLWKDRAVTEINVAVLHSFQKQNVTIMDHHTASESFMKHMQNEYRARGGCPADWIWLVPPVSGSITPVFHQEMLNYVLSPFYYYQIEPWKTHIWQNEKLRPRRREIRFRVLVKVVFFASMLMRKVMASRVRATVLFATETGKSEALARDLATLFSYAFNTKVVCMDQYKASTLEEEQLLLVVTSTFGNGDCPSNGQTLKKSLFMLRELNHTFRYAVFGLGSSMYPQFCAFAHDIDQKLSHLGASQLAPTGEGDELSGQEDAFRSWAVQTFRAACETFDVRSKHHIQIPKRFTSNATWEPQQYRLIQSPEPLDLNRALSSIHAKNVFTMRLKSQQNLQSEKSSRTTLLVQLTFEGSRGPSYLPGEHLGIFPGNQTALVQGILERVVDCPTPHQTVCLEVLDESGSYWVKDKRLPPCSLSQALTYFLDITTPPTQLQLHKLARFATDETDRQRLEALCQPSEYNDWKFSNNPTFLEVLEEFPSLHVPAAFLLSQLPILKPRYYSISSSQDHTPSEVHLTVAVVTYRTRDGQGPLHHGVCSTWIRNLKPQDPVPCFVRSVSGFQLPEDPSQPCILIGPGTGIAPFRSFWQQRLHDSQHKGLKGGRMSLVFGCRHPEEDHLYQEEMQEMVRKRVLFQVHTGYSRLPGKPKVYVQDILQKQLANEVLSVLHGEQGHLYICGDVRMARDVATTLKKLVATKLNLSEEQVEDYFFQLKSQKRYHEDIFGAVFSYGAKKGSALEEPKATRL

[4] = biological target: T2, C-X-C chemokine receptor type 2 (Homo sapiens, UniProt P25025); assay type: cell membranes, CHO-K1, Membrane; details: cho-k1; note: in other assays of this panel Not Active means under 50% inhibition at 10 µM
T2 sequence (P25025 whole entry): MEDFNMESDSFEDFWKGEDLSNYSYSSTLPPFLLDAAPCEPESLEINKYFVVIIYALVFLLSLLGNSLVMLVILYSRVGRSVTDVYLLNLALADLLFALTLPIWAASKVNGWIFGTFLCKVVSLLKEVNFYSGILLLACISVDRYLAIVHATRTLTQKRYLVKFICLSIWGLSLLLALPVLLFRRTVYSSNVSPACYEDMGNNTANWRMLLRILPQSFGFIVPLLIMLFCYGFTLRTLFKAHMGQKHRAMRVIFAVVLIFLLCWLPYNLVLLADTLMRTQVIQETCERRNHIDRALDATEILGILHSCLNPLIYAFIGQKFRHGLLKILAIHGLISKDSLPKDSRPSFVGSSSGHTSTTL

[5] = DRUGMATRIX: Calcium Channel Type L, Phenylalkylamine radioligand binding (ligand: [3H] (-)-Desmethoxyverapamil (D-888)); assay type: cell membranes, Rattus norvegicus, Wistar, Brain, Membrane; details: Not Active = under 50% inhibition at 10 µM
[6] = DRUGMATRIX: Atrial Natriuretic Factor (ANF) radioligand binding (ligand: [125I] ANF (rat)); assay type: cell membranes, Cavia porcellus, Dunkin-Hartley, Adrenal gland, Membrane; details: Not Active = under 50% inhibition at 10 µM
[7] = biological target: Delta-type opioid receptor (Homo sapiens, UniProt P41143); assay type: cell membranes, HEK293, Membrane; details: hek293; note: in other assays of this panel Not Active means under 50% inhibition at 10 µM
Chain of Delta-type opioid receptor (P41143 whole entry): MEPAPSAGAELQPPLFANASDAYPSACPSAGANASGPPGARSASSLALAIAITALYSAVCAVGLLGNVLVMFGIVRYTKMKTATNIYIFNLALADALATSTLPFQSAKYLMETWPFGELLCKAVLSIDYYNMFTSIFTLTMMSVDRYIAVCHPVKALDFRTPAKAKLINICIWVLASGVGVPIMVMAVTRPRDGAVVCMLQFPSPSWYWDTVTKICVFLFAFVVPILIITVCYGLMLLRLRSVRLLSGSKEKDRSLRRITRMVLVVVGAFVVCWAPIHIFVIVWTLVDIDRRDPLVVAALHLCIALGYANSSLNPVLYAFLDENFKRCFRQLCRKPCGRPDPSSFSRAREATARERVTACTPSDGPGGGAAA

CCN1C[C@]2(COC)[C@H](O)C[C@H](OC)[C@@]34[C@@H]5C[C@@]6(O)[C@H](OC(=O)c7ccccc7)[C@@H]5[C@@](OC(C)=O)([C@@H]([C@H](OC)[C@H]23)[C@@H]14)[C@@H](O)[C@@H]6OC [ACONITINE]
Not Active: IC50 [1] | Ki [1] | IC50 [2] | Ki [2] | IC50 [3] | IC50 [4] | IC50 [5] | Ki [5] | IC50 [6] | Ki [6] | IC50 [7]

COc1ccc(C[C@H](N)C(=O)N[C@H]2[C@@H](O)[C@H](n3cnc4c(N(C)C)ncnc43)O[C@@H]2CO)cc1 [PUROMYCIN]
Not Active: IC50 [1] | Ki [1] | IC50 [2] | Ki [2] | IC50 [3] | IC50 [4] | IC50 [5] | Ki [5] | IC50 [6] | Ki [6] | IC50 [7]

OC[C@H]1OC2C3[C@@H](CO)OC(O[C@H]4[C@H](O)[C@@H](O)[C@@H](O[C@H]5[C@H](O)[C@@H](O)[C@@H](O[C@H]6[C@H](O)[C@@H](O)[C@@H](O[C@H]7[C@H](O)[C@@H](O)[C@@H](O[C@H]8[C@H](O)[C@@H](O)[C@@H](O[C@H]9[C@H](O)[C@@H](O)C(OC1[C@H](O)[C@H]2O)O[C@@H]9CO)O[C@@H]8CO)O[C@@H]7CO)O[C@@H]6CO)O[C@@H]5CO)O[C@@H]4CO)[C@H](O)[C@H]3O
Not Active: IC50 [1] | Ki [1] | IC50 [2] | Ki [2] | IC50 [3] | IC50 [4] | IC50 [5] | Ki [5] | IC50 [6] | Ki [6] | IC50 [7]

NC(N)=Nc1nc(CSCCC(N)=NS(N)(=O)=O)cs1 [FAMOTIDINE]
Not Active: IC50 [1] | Ki [1] | IC50 [2] | Ki [2] | IC50 [3] | IC50 [4] | IC50 [5] | Ki [5] | IC50 [6] | Ki [6] | IC50 [7]

C[N+](C)(C)CCOP(=O)([O-])OC[C@H](O)CO
Not Active: IC50 [1] | Ki [1] | IC50 [2] | Ki [2] | IC50 [3] | IC50 [4] | IC50 [5] | Ki [5] | IC50 [6] | Ki [6] | IC50 [7]

COc1cc(/C=C/C(=O)O)ccc1O [FERULATE]
Not Active: IC50 [1] | Ki [1] | IC50 [2] | Ki [2] | IC50 [3] | IC50 [4] | IC50 [5] | Ki [5] | IC50 [6] | Ki [6] | IC50 [7]

NC(=O)NC(=O)Cc1ccccc1 [PHENACEMIDE]
Not Active: IC50 [1] | Ki [1] | IC50 [2] | Ki [2] | IC50 [3] | IC50 [4] | IC50 [5] | Ki [5] | IC50 [6] | Ki [6] | IC50 [7]

NC(=O)CN1CCCC1=O
Not Active: IC50 [1] | Ki [1] | IC50 [2] | Ki [2] | IC50 [3] | IC50 [4] | IC50 [5] | Ki [5] | IC50 [6] | Ki [6] | IC50 [7]

CC(C)Cn1cnc2c(N)nc3ccccc3c21 [IMIQUIMOD]
Not Active: IC50 [1] | Ki [1] | IC50 [2] | Ki [2] | IC50 [3] | IC50 [4] | IC50 [5] | Ki [5] | IC50 [6] | Ki [6] | IC50 [7]

C=CCN1CC[C@]23c4c5ccc(O)c4O[C@H]2/C(=N/N=C2\CC[C@@]4(O)[C@H]6Cc7ccc(O)c8c7[C@@]4(CCN6CC=C)[C@H]2O8)CC[C@@]3(O)[C@H]1C5 [NALOXONAZINE]
Not Active: IC50 [1] | Ki [1] | IC50 [2] | Ki [2] | IC50 [3] | IC50 [4] | IC50 [5] | Ki [5] | IC50 [6] | Ki [6]

— ChEMBL document CHEMBL1909046, “DrugMatrix in vitro pharmacology data”
